From ChEMBL document CHEMBL5649166, “RIP3 induces apoptosis independent of pronecrotic kinase activity” (Mol Cell, 2014)

Experiments:
[1] = target: Protein kinase C alpha type (Homo sapiens) (UniProt P17252); assay: Inhibition of human PKCa using ERMRPRKRQGSVRRRV as substrate at 1 uM in presence of 32P-ATP by Hotspot assay relative to control; values are per cent of control
[2] = target: Death-associated protein kinase 3 (Homo sapiens) (UniProt O43293); assay: Inhibition of human ZIPK/DAPK3 using KKLNRTLSFAEPG as substrate at 1 uM in presence of 32P-ATP by Hotspot assay relative to control; values are per cent of control
[3] = target: T1, Ephrin type-A receptor 8 (Homo sapiens) (UniProt P29322); assay: Inhibition of human EPHA8 using poly[Glu:Tyr] (4:1) as substrate at 1 uM in presence of 32P-ATP by Hotspot assay relative to control; values are per cent of control
T1 sequence (whole entry): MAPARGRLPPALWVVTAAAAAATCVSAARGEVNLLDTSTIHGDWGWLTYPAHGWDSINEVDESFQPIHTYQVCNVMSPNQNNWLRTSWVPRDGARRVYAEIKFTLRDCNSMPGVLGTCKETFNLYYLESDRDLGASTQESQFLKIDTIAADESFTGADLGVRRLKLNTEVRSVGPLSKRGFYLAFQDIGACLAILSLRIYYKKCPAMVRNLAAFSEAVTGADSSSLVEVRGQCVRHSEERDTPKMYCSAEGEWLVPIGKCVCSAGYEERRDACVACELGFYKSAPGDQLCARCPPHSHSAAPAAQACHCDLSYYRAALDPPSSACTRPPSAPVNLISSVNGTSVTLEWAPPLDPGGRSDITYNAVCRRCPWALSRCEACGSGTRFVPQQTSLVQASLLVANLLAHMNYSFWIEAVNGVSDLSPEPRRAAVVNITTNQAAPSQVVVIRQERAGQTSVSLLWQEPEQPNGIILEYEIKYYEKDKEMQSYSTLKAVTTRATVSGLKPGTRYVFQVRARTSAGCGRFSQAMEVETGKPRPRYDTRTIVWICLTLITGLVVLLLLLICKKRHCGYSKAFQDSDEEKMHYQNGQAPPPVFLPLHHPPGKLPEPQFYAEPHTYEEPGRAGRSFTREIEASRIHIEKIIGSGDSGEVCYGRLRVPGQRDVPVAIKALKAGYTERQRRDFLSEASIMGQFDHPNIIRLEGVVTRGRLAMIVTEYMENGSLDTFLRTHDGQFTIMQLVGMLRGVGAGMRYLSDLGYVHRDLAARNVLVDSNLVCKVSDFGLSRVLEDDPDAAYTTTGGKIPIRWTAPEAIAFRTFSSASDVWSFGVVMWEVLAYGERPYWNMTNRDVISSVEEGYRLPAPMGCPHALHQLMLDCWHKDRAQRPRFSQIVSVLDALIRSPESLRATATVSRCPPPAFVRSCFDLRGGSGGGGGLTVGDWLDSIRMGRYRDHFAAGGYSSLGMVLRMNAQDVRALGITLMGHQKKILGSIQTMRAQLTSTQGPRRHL

[4] = target: T2, MAP kinase-activated protein kinase 5 (Homo sapiens) (UniProt Q8IW41); assay: Inhibition of human MAPKAPK5/PRAK using KKLNRTLSVA as substrate at 1 uM in presence of 32P-ATP by Hotspot assay relative to control; values are per cent of control
T2 sequence (whole entry): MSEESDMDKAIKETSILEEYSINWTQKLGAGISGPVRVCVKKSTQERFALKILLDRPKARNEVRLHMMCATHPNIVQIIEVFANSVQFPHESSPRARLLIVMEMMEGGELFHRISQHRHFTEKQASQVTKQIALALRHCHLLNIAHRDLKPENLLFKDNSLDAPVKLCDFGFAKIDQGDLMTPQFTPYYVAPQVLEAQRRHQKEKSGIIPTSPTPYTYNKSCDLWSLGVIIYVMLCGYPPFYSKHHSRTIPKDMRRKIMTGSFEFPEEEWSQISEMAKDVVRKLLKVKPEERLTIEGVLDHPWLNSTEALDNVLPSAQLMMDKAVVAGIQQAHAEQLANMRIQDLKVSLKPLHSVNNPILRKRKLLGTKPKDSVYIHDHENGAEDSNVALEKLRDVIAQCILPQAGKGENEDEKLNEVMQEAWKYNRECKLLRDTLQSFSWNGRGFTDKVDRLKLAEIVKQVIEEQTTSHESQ

[5] = target: Phosphorylase b kinase gamma catalytic chain, skeletal muscle/heart isoform (Homo sapiens) (UniProt Q16816); assay: Inhibition of human PHKg1 using KKLNRTLSFAEPG as substrate at 1 uM in presence of 32P-ATP by Hotspot assay relative to control; values are per cent of control
[6] = target: Death-associated protein kinase 1 (Homo sapiens) (UniProt P53355); assay: Inhibition of human DAPK1 using KKLNRTLSFAEPG as substrate at 1 uM in presence of 32P-ATP by Hotspot assay relative to control; values are per cent of control
[7] = target: T3, Protein kinase C epsilon type (Homo sapiens) (UniProt Q02156); assay: Inhibition of human PKCepsilon using ERMRPRKRQGSVRRRV as substrate at 1 uM in presence of 32P-ATP by Hotspot assay relative to control; values are per cent of control
T3 sequence (whole entry): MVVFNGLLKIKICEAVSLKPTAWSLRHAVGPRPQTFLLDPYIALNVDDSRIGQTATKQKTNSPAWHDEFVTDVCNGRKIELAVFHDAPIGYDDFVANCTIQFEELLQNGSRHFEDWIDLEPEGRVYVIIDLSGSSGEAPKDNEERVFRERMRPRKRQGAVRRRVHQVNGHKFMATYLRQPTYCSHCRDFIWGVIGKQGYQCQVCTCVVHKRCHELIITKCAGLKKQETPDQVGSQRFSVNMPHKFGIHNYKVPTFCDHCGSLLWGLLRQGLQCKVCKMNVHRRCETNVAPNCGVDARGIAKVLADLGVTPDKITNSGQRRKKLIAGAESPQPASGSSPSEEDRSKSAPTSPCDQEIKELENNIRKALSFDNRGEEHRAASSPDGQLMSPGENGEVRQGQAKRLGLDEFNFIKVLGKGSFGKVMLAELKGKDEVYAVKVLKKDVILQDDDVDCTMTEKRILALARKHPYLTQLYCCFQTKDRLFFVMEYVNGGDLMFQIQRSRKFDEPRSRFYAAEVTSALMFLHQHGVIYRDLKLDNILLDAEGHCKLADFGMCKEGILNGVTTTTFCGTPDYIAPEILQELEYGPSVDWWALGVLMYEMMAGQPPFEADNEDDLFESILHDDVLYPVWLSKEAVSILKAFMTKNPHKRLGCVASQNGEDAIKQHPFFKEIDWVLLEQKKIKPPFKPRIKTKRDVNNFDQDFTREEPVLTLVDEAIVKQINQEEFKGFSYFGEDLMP

Death-associated protein kinase 3 (Homo sapiens), sequence (O43293 whole entry, looked up): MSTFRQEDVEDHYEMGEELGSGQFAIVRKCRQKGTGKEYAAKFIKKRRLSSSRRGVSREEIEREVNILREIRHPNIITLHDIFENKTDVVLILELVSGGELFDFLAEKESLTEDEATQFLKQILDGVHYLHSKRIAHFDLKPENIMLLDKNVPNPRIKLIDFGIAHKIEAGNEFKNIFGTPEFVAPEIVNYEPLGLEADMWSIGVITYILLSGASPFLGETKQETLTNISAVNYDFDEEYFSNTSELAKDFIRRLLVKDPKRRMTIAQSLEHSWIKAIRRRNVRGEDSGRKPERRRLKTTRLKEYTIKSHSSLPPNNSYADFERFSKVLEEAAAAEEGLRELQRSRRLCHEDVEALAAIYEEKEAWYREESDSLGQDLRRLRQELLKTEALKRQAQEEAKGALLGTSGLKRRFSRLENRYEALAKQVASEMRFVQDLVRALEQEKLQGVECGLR
Phosphorylase b kinase gamma catalytic chain, skeletal muscle/heart isoform (Homo sapiens), sequence (Q16816 whole entry, looked up, canonical isoform): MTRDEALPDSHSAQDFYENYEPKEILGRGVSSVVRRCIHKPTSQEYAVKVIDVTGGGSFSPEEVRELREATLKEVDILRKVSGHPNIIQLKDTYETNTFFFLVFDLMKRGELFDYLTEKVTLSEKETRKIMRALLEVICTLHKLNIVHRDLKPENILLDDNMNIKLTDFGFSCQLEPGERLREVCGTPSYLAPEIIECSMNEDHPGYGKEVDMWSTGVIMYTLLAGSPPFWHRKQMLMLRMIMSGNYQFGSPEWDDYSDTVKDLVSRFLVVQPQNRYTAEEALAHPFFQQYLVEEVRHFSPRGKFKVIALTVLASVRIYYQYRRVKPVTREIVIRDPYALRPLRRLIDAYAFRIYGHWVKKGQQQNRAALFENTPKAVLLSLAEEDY
Death-associated protein kinase 1 (Homo sapiens), sequence (P53355 whole entry, looked up): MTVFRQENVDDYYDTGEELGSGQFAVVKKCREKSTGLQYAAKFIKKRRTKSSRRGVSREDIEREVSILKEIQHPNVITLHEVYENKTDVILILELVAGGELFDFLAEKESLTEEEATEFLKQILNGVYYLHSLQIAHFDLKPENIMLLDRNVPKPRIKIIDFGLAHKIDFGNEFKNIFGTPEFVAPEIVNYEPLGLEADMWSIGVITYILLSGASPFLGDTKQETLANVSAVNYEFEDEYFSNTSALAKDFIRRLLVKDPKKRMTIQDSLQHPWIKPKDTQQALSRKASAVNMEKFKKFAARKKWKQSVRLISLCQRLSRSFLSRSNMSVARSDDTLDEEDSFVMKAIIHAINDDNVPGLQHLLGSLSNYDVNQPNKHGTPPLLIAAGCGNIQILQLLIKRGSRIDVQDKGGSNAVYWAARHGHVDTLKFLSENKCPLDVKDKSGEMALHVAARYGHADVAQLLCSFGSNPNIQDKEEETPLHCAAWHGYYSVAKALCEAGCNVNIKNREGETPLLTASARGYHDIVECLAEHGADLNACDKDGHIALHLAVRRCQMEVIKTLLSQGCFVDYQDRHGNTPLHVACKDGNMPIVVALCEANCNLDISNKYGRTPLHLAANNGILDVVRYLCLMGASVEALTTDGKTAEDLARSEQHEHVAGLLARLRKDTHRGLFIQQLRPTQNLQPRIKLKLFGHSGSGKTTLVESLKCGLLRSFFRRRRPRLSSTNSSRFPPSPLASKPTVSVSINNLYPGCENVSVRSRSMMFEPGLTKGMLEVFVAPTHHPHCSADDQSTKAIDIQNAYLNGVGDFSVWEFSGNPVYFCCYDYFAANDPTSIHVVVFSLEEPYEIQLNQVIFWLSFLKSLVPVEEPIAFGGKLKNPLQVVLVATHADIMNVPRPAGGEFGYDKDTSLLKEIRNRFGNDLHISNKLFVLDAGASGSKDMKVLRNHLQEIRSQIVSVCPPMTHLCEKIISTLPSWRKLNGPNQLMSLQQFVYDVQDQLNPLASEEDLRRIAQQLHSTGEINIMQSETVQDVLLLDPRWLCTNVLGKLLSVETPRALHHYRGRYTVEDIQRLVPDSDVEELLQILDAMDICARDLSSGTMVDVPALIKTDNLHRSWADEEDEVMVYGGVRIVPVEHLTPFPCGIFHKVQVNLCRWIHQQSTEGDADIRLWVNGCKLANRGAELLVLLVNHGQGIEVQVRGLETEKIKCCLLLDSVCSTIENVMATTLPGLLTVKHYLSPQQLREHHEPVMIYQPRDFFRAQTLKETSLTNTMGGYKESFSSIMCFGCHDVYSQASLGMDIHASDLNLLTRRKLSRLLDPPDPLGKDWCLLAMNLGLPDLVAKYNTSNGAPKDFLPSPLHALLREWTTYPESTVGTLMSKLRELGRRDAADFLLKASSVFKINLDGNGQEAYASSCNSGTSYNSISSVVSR

CC(C)S(=O)(=O)c1ccc2nccc(Nc3ccc4scnc4c3)c2c1
residual activity [1]: 80.2% | residual activity [2]: 102% | residual activity [3]: 42.8% | residual activity [4]: 102% | residual activity [5]: 94.8% | residual activity [6]: 97% | residual activity [7]: 96%

Cc1cc(-c2cnc(N)c3c(-c4ccc5scnc5c4)csc23)n(C)n1
residual activity [1]: 80.8% | residual activity [2]: 91.3% | residual activity [3]: 62.7% | residual activity [4]: 90.5% | residual activity [5]: 96.8% | residual activity [6]: 95.3% | residual activity [7]: 103%

CNC(=O)c1ccc2c(c1)ncn2-c1ccc(CC(=O)OC(C)(C)C)cc1
residual activity [1]: 107% | residual activity [2]: 96.8% | residual activity [3]: 96.7% | residual activity [4]: 103% | residual activity [5]: 101% | residual activity [6]: 91.6% | residual activity [7]: 96.7%
